From US12383632B2, “Doxorubicin containing nanoplexes and uses thereof” (University of Maryland, Baltimore, priority 2019, dated 2025)

Tests used:
MDA-MB-435 = test: In vivo tumor experiments, tumor size; set-up: species or system mice; settings: low dose 2.2 μg/injection, versus untreated controls
Experimental: MDA-MB-435 cells (4×10^6 cells per injection) were subcutaneously injected bilaterally into each mouse. After 4 days, when the subcutaneous tumors were about 45 mm3, the mice were separated into groups of 6 mice to determine the efficacy of treatments. The groups were as follows: untreated, nanoplex alone, low dose doxorubicin (2.2 μg/injection), high dose doxorubicin (4.4 μg/injection, low dose doxorubicin nanoplex (2.2 μg/injection), high dose doxorubicin nanoplex (4.4 μg/injection). The mice were given five intravenous injections of the various treatments. Nanoplexes were administered every 2 to 3 days (Monday, Wednesday, Friday). Tumor size was assessed with calipers before each injection and 2 days after the last injection; the size was calculated by formula ½×d1×d22, where d2 is the smaller of the two measurements. Mice were weighed before each injection with tumor weight subtracted to obtain the final weight.

Ki67 = test: Immunofluorescence of Ki67 in tumor sections; assay type: in vivo, mice
Experimental: Quantification of tumor cells staining positive for Ki67 with different treatment groups is shown, expressed as the percentage of Ki67 positive cells. The data represent the mean+SD of four HPF images (60×) for each treatment. **, p<0.01, ***, p<0.001. N=˜50 cells/image.
After the tumors were fixed and a heat-mediated antigen retrieval step was performed, the tumors were permeabilized (0.1% Triton X-100) for 10 min and then blocked with 5% BSA in 0.1% PBS-Tween for 2 h. […] Nuclear DNA was labeled with DAPI.

SMILES: COc1cccc2c1C(=O)c1c(O)c3c(c(O)c1C2=O)C[C@@](O)(C(=O)CO)C[C@@H]3O[C@H]1C[C@H](N)[C@H](O)[C@H](C)O1 [free doxorubicin, doxorubicin]
- effect on growth / size of tumors (words) (MDA-MB-435): does not reduce the size of tumors
- effect on growth / size of tumors (words) (MDA-MB-435; listed as doxorubicin): no effect
- tumor cells stained positive for Ki67 (Ki67; high dose, 4.4 μg doxorubicin/injection): about 57%
- tumor cells stained positive for Ki67 (Ki67; low dose, 2.2 μg doxorubicin/injection): 80%
